Results on 21 compounds are retold here after patent US20250186437A1, “CARBOLINE COMPOUNDS AND USE THEREOF” (PTC Therapeutics, Inc., priority 2021, published 2025).

A word on the IC50: it is the concentration that gives 50% inhibition. Read a low IC50 as greater potency in that assay.

The subject of the test is MOLM-13 cells. The test can be described thus: MOLM-13 Cell Proliferation Assay (indicator of DHODH inhibition). The format is cell-based. The settings on record: Homo sapiens, 72 Hours of culture, CellTiter-Glo, no uridine. In a few lines:
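Low-passage MOLM-13 cells (10^4/well) in RPMI 1640 + 10% FBS exposed to compound (0.5% DMSO final) for 72 h at 37 °C, 5% CO2. Viability read by CellTiter-Glo luminescence; growth reflects de novo pyrimidine synthesis dependent on DHODH.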
(Cellular ATP, detected with luciferase, serves as a proxy for viable cell number.)
`Cc1nc(C)nc(N2CCc3c([nH]c4ccc(Cl)cc34)C2c2cnc(N3CCN(C)CC3)nc2)n1` (stereo not drawn) [Compound 380, 6-chloro-2-(4,6-dimethyl-1,3,5-triazin-2-yl)-1-[2-(4-methylpiperazin-1-yl)pyrimidin-5-yl]-2,3,4,9-tetrahydro-1H-pyrido[3,4-b]indole] gave an IC50 of 26.3 nM. This counts as double-digit nanomolar. Next, `Fc1cnc(N2CCc3c([nH]c4ccc(Cl)cc34)C2c2ccc(N3CCOCC3)nc2)nc1` (stereo not drawn) [Compound 382, 6-chloro-2-(5-fluoropyrimidin-2-yl)-1-[6-(morpholin-4-yl)pyridin-3-yl]-2,3,4,9-tetrahydro-1H-pyrido[3,4-b]indole]: 13.4 nM; `FC(F)(F)c1cnnc(N2CCc3c([nH]c4ccc(Cl)cc34)C2c2cnc(N3CCOCC3)nc2)n1` (stereo not drawn) [Compound 383, 6-chloro-1-[2-(morpholin-4-yl)pyrimidin-5-yl]-2-[5-(trifluoromethyl)-1,2,4-triazin-3-yl]-2,3,4,9-tetrahydro-1H-pyrido[3,4-b]indole]: 1.6 nM; `Cc1cnnc(N2CCc3c([nH]c4ccc(Cl)cc34)C2c2cnc(N3CCOCC3)nc2)n1` (stereo not drawn) [Compound 384, 6-chloro-2-(5-methyl-1,2,4-triazin-3-yl)-1-[2-(morpholin-4-yl)pyrimidin-5-yl]-2,3,4,9-tetrahydro-1H-pyrido[3,4-b]indole]: 25.6 nM. Next, `Cc1ccc([C@H]2c3[nH]c4ccc(Cl)cc4c3CCN2c2ncc(F)c(C#N)n2)c(F)c1F` [Compound 385, 2-[(1S)-6-chloro-1-(2,3-difluoro-4-methylphenyl)-1,3,4,9-tetrahydro-2H-pyrido[3,4-b]indol-2-yl]-5-fluoropyrimidine-4-carbonitrile]: 2.2 nM; `Cc1ccc([C@H]2c3[nH]c4ccc(Cl)cc4c3CCN2c2nc(C(F)(F)F)nc(C(F)(F)F)n2)cc1` [Compound 386, (1S)-2-[4,6-bis(trifluoromethyl)-1,3,5-triazin-2-yl]-6-chloro-1-(4-methylphenyl)-2,3,4,9-tetrahydro-1H-pyrido[3,4-b]indole]: 0.3 nM; `CSc1nc(N2CCc3c([nH]c4ccc(Cl)cc34)[C@@H]2c2ccc(C)c(F)c2F)nc(C(F)(F)F)n1` [Compound 389, (1S)-6-chloro-1-(2,3-difluoro-4-methylphenyl)-2-[4-(methylsulfanyl)-6-(trifluoromethyl)-1,3,5-triazin-2-yl]-2,3,4,9-tetrahydro-1H-pyrido[3,4-b]indole]: 0.8 nM. Then `Cc1ccc([C@H]2c3[nH]c4ccc(Cl)cc4c3CCN2c2nc(C#N)nc(C(F)(F)F)n2)c(F)c1F` [Compound 390, 4-[(1S)-6-chloro-1-(2,3-difluoro-4-methylphenyl)-1,3,4,9-tetrahydro-2H-pyrido[3,4-b]indol-2-yl]-6-(trifluoromethyl)-1,3,5-triazine-2-carbonitrile], with 3.5 nM; and `FC(F)(F)c1ccnc(N2CCc3c([nH]c4ccc(Cl)cc34)C2c2cnc(N3CC4(COC4)C3)nc2)n1` (stereo not drawn) [Compound 391, 6-chloro-1-[2-(2-oxa-6-azaspiro[3.3]heptan-6-yl)pyrimidin-5-yl]-2-[4-(trifluoromethyl)pyrimidin-2-yl]-2,3,4,9-tetrahydro-1H-pyrido[3,4-b]indole], with 5.7 nM; and `Cc1ccc([C@H]2c3[nH]c4ccc(Cl)cc4c3CCN2c2ncc(F)c(C#N)n2)cc1` [Compound 392, 2-[(1S)-6-chloro-1-(4-methylphenyl)-1,3,4,9-tetrahydro-2H-pyrido[3,4-b]indol-2-yl]-5-fluoropyrimidine-4-carbonitrile], with 3.1 nM.

Compound `Cc1ccc([C@H]2c3[nH]c4ccc(Cl)cc4c3CCN2c2ncc(F)cn2)cc1` [Compound 393, (1S)-6-chloro-2-(5-fluoropyrimidin-2-yl)-1-(4-methylphenyl)-2,3,4,9-tetrahydro-1H-pyrido[3,4-b]indole] displayed a concentration for half-maximal inhibition (IC50) of 12.7 nM. Next, `Cc1ccc([C@H]2c3[nH]c4ccc(Cl)cc4c3CCN2c2ncc(F)c(C)n2)cc1` [Compound 394, (1S)-6-chloro-2-(5-fluoro-4-methylpyrimidin-2-yl)-1-(4-methylphenyl)-2,3,4,9-tetrahydro-1H-pyrido[3,4-b]indole]: 4.9 nM; `Cc1ccc([C@H]2c3[nH]c4ccc(Cl)cc4c3CCN2c2nc(C)c(F)c(C)n2)cc1` [Compound 395, (1S)-6-chloro-2-(5-fluoro-4,6-dimethylpyrimidin-2-yl)-1-(4-methylphenyl)-2,3,4,9-tetrahydro-1H-pyrido[3,4-b]indole]: 4.4 nM.

Compound `N#Cc1nc(N2CCc3c([nH]c4ccc(Cl)cc34)[C@@H]2c2cnc(N3CCOCC3)nc2)ncc1F` [Compound 396, 2-{(1S)-6-chloro-1-[2-(morpholin-4-yl)pyrimidin-5-yl]-1,3,4,9-tetrahydro-2H-pyrido[3,4-b]indol-2-yl}-5-fluoropyrimidine-4-carbonitrile] returned a half-inhibitory concentration (IC50) of 2.4 nM. Compared with the last compound, the IC50 is about 1.8-fold lower. Then `Cc1ccc([C@H]2c3[nH]c4ccc(Cl)cc4c3CCN2c2nc(C#N)cc(C#N)n2)cc1` [Compound 397, 2-[(1S)-6-chloro-1-(4-methylphenyl)-1,3,4,9-tetrahydro-2H-pyrido[3,4-b]indol-2-yl]pyrimidine-4,6-dicarbonitrile], with 2.4 nM. Turning to `Cc1ccc([C@H]2c3[nH]c4ccc(Cl)cc4c3CCN2c2ncnc(C#N)n2)cc1` [Compound 399, 4-[(1S)-6-chloro-1-(4-methylphenyl)-1,3,4,9-tetrahydro-2H-pyrido[3,4-b]indol-2-yl]-1,3,5-triazine-2-carbonitrile], 11.2 nM corresponded to half-maximal inhibition (IC50). Then `N#Cc1nc(N2CCc3c([nH]c4ccc(Cl)cc34)[C@@H]2c2ccc(N3CCOCC3)nc2)ncc1F` [Compound 400, 2-{(1S)-6-chloro-1-[6-(morpholin-4-yl)pyridin-3-yl]-1,3,4,9-tetrahydro-2H-pyrido[3,4-b]indol-2-yl}-5-fluoropyrimidine-4-carbonitrile], with 2.3 nM; and `Cc1ccc(C2c3[nH]c4ccc(Cl)cc4c3CCN2c2ncc(F)cn2)c(F)c1F` (stereo not drawn) [Compound 401, 6-chloro-1-(2,3-difluoro-4-methylphenyl)-2-(5-fluoropyrimidin-2-yl)-2,3,4,9-tetrahydro-1H-pyrido[3,4-b]indole], with 3.2 nM.

`Cc1ccc([C@H]2c3[nH]c4ccc(Cl)cc4c3CCN2c2nc(C)nc(C)n2)cc1` [Compound 402, (1S)-6-chloro-2-(4,6-dimethyl-1,3,5-triazin-2-yl)-1-(4-methylphenyl)-2,3,4,9-tetrahydro-1H-pyrido[3,4-b]indole]: the IC50 amounted to 4.7 nM. Then `Cc1ccc(C2c3[nH]c4ccc(Cl)cc4c3CCN2c2nncc(C(F)(F)F)n2)c(F)c1F` (stereo not drawn) [Compound 403, 6-chloro-1-(2,3-difluoro-4-methylphenyl)-2-[5-(trifluoromethyl)-1,2,4-triazin-3-yl]-2,3,4,9-tetrahydro-1H-pyrido[3,4-b]indole], with 0.7 nM.

As to `FC(F)(F)c1nc(N2CCc3c([nH]c4ccc(Cl)cc34)C2c2ccc(N3CCOCC3)nc2)nc(C(F)(F)F)n1` (stereo not drawn) [Compound 404, 2-[4,6-bis(trifluoromethyl)-1,3,5-triazin-2-yl]-6-chloro-1-[6-(morpholin-4-yl)pyridin-3-yl]-2,3,4,9-tetrahydro-1H-pyrido[3,4-b]indole], the IC50 was found to be 0.4 nM.
